Source: patent US20120083522A1, “MODULATION OF INFLAMMATORY RESPONSES BY FACTOR XI” (Isis Pharmaceuitcals, inc., priority 2009, published 2012)
In the oligonucleotide strings, read from the 5' end, every base follows the letter of its sugar. An asterisk marks phosphorothioate; unmarked linkages are phosphodiester. Other units and linkages are bracketed, terminal groups are in braces. A string of capitals states the bases alone. e = 2'-O-(2-methoxyethyl) (MOE); [5mC] = 5-methylcytosine; d = 2'-deoxy (DNA)

Columns and labels:
[1] = system: human Factor XI mRNA; assay: Dose-dependent inhibition in HepG2 cells, lipofectin (Example 4); assay type: cell-based; details: 16 hours
Procedure: (§1) Cells were plated at a density of 10,000 cells per well and transfected using lipofectin reagent with 9.375 nM, 18.75 nM, 37.5 nM and 75 nM concentrations of antisense oligonucleotide, as specified in Table 9. After a treatment period of approximately 16 hours, RNA was isolated from the cells and Factor XI mRNA levels were measured by quantitative real-time PCR. Human Factor XI primer probe set RTS 2966 was used to measure mRNA levels. Factor XI mRNA levels were adjusted according to total RNA content, as measured by RIBOGREEN®. Results are presented as percent inhibition of Factor XI, relative to untreated control cells.

[2] = system: human Factor XI mRNA; assay: Antisense inhibition in HepG2 cells by microwalk gapmers, 75 nM, lipofectin (Example 3); assay type: cell-based; details: HepG2 cells, 75 nM
How it was run: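 HepG2 cells (10,000 per well) were transfected with 75 nM gapmer using lipofectin and treated for about 24 h. Factor XI mRNA was quantified by real-time PCR, normalized to RiboGreen total RNA and expressed as percent inhibition versus untreated controls.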

[3] = system: human Factor XI mRNA; assay: Dose-dependent inhibition in HepG2 cells, electroporation (Example 4); assay type: cell-based; details: 16 hours
Procedure: as §1, with “The gapmers were also transfected via electroporation and their dose dependent inhibition of human Factor XI mRNA was measured. Cells” for “Cells”, “20,000” for “10,000”, “via electroporation” for “using lipofectin reagent”, “0.7 μM, 2.2 μM, 6.7 μM,” for “9.375 nM, 18.75 nM, 37.5 nM”, “20 μM” for “75 nM”, “10.” for “9.”

[4] = Cynomolgus monkeys: body and organ weights (Example 29); assay type: in vivo; details: for Kidney weight / Liver weight / Spleen weight: after euthanasia; for Body weight: escalating doses 5, 10, 25 mg/kg s.c.
Procedure: (§2) Groups, each consisting of two male and three female monkeys, were injected subcutaneously with ISIS 416838, ISIS 416850, ISIS 416858, ISIS 416864, or ISIS 417002 in escalating doses. Antisense oligonucleotide was administered to the monkeys at 5 mg/kg three times per a week for week 1; 5 mg/kg twice per week for weeks 2 and 3; 10 mg/kg three times per week for week 4; 10 mg/kg twice per week for weeks 5 and 6; 25 mg/kg three times per week for week 7; and 25 mg/kg twice per week for weeks 8, 9, 10, 11, and 12. One control group, consisting of two male and three female monkeys, was injected subcutaneously with PBS according to the same dosing regimen. An additional experimental group, consisting of two male and three female monkeys, was injected subcutaneously with ISIS 416850 in a chronic, lower dose regimen. Antisense oligonucleotide was administered to the monkeys at 5 mg/kg three times per week for week 1; 5 mg/kg twice per week for week 2 and 3; 10 mg/kg three times per week for week 4; and 10 mg/kg twice per week for weeks 5 to 12. Body weights were measured weekly. Blood samples were collected 14 days and 5 days before the start of treatment and subsequently once per week for Factor XI protein activity analysis in plasma and measurement of various hematologic factors. On day 85, the monkeys were euthanized by exsanguination while under deep anesthesia, and organs harvested for further analysis.
Body weights were taken once weekly throughout the dosing regimen. […] Organ weights were taken after the animals were euthanized and livers, kidneys and spleens were harvested and weighed. […] The ISIS oligonucleotide, ISIS 416850, given with the chronic dose regimen is distinguished from the other oligonucleotides with an asterisk (*).

[5] = system: Factor XI protein; assay: Cynomolgus monkeys: plasma Factor XI protein ELISA (Example 29); assay type: in vivo; details: escalating doses 5, 10, 25 mg/kg s.c.
Procedure: as §2
Plasma samples from all monkey groups taken on different days were analyzed by a sandwich-style ELISA assay (Affinity Biologicals Inc.) using an affinity-purified polyclonal anti-Factor XI antibody as the capture antibody and a peroxidase-conjugated polyclonal anti-Factor XI antibody as the detecting antibody. Monkey plasma was diluted 1:50 for the assay. Peroxidase activity was expressed by incubation with the substrate o-phenylenediamine. The color produced was quantified using a microplate reader at 490 nm and was considered to be proportional to the concentration of Factor XI in the samples.
The results are presented in Table 122, expressed as percentage reduction relative to that of the PBS control.

[6] = Cynomolgus monkeys: hematology assays (Example 29); assay type: in vivo
Procedure: as §2
The ISIS oligonucleotide, ISIS 416850, given with the chronic dose regimen is distinguished from the other oligonucleotides with an asterisk (*).

[7] = oligonucleotides targeted to nucleobases 1062 to 1091 of SEQ ID NO: 1

416989 (antisense eG*eA*dG*dA*dT*dT*d[5mC]*dT*dT*dT*dG*dG*dG*d[5mC]*d[5mC]*eA*eT*eT*e[5mC]*e[5mC]) [compound 416989]
percent inhibition of Factor XI mRNA, relative to untreated control cells ([1]; 9.375 nM): 18% | percent inhibition of Factor XI mRNA, relative to untreated control cells ([1]; 18.75 nM): 41% | percent inhibition of Factor XI mRNA, relative to untreated control cells ([1]; 37.5 nM): 62% | percent inhibition of Factor XI mRNA, relative to untreated control cells ([1]; 75 nM): 83% | % inhibition of human Factor XI mRNA levels [2, 7]: 88% | percent inhibition of Factor XI mRNA, relative to untreated control cells ([3]; 0.7 μM): 32% | percent inhibition of Factor XI mRNA, relative to untreated control cells ([3]; 2.2 μM): 65% | percent inhibition of Factor XI mRNA, relative to untreated control cells ([3]; 6.7 μM): 88% | percent inhibition of Factor XI mRNA, relative to untreated control cells ([3]; 20 μM): 94%

416993 (antisense e[5mC]*eT*dT*dT*dG*dA*dG*dA*dT*dT*d[5mC]*dT*dT*dT*dG*eG*eG*e[5mC]*e[5mC]*eA) [compound 416993]
percent inhibition of Factor XI mRNA, relative to untreated control cells ([1]; 9.375 nM): 15% | percent inhibition of Factor XI mRNA, relative to untreated control cells ([1]; 18.75 nM): 37% | percent inhibition of Factor XI mRNA, relative to untreated control cells ([1]; 37.5 nM): 50% | percent inhibition of Factor XI mRNA, relative to untreated control cells ([1]; 75 nM): 68% | % inhibition of human Factor XI mRNA levels [2, 7]: 91% | percent inhibition of Factor XI mRNA, relative to untreated control cells ([3]; 0.7 μM): 22% | percent inhibition of Factor XI mRNA, relative to untreated control cells ([3]; 2.2 μM): 48% | percent inhibition of Factor XI mRNA, relative to untreated control cells ([3]; 6.7 μM): 87% | percent inhibition of Factor XI mRNA, relative to untreated control cells ([3]; 20 μM): 92%

417000 (antisense eT*eG*d[5mC]*dA*d[5mC]*dA*dG*dT*dT*dT*d[5mC]*dT*dG*dG*d[5mC]*eA*eG*eG*e[5mC]*e[5mC]) [compound 417000]
percent inhibition of Factor XI mRNA, relative to untreated control cells ([1]; 9.375 nM): 35% | percent inhibition of Factor XI mRNA, relative to untreated control cells ([1]; 18.75 nM): 47% | percent inhibition of Factor XI mRNA, relative to untreated control cells ([1]; 37.5 nM): 58% | percent inhibition of Factor XI mRNA, relative to untreated control cells ([1]; 75 nM): 70% | % inhibition of human Factor XI mRNA levels ([2]; oligonucleotides targeted to nucleobases 1275 to 1318 of SEQ ID NO: 1): 89% | percent inhibition of Factor XI mRNA, relative to untreated control cells ([3]; 0.7 μM): 46% | percent inhibition of Factor XI mRNA, relative to untreated control cells ([3]; 2.2 μM): 73% | percent inhibition of Factor XI mRNA, relative to untreated control cells ([3]; 6.7 μM): 76% | percent inhibition of Factor XI mRNA, relative to untreated control cells ([3]; 20 μM): 89%

ISIS 416838: gapmer of Table 6 (antisense eG*e[5mC]*eA*eA*e[5mC]*d[5mC]*dG*dG*dG*dA*dT*dG*dA*dT*dG*eA*eG*eT*eG*e[5mC])
Kidney weight [4]: 12 g | Liver weight [4]: 63 g | Spleen weight [4]: 5 g | Body weight ([4]; day 1): 2720 g | Body weight ([4]; day 8): 2592 g | Body weight ([4]; day 15): 2642 g | Body weight ([4]; day 22): 2702 g | Body weight ([4]; day 29): 2689 g | Body weight ([4]; day 36): 2708 g | Body weight ([4]; day 43): 2700 g | Body weight ([4]; day 50): 2731 g | Body weight ([4]; day 57): 2737 g | Body weight ([4]; day 64): 2746 g | Body weight ([4]; day 71): 2869 g | Body weight ([4]; day 78): 2766 g | Inhibition of Factor XI protein relative to the PBS control ([5]; day 8): 3% | Inhibition of Factor XI protein relative to the PBS control ([5]; day 15): 4% | Inhibition of Factor XI protein relative to the PBS control ([5]; day 22): 5% | Inhibition of Factor XI protein relative to the PBS control ([5]; day 29): 8% | Inhibition of Factor XI protein relative to the PBS control ([5]; day 36): 11% | Inhibition of Factor XI protein relative to the PBS control ([5]; day 43): 5% | Inhibition of Factor XI protein relative to the PBS control ([5]; day 50): 8% | Inhibition of Factor XI protein relative to the PBS control ([5]; day 57): 10% | Inhibition of Factor XI protein relative to the PBS control ([5]; day 64): 11% | Inhibition of Factor XI protein relative to the PBS control ([5]; day 71): 12% | Inhibition of Factor XI protein relative to the PBS control ([5]; day 78): 10% | Inhibition of Factor XI protein relative to the PBS control ([5]; day 85): 10% | Inhibition of Factor XI protein relative to the PBS control ([5]; day −5 (before treatment)): 0% | Inhibition of Factor XI protein relative to the PBS control ([5]; day −14 (before treatment)): 0% | platelet count ([6]; day 8): 387000 µL⁻¹ | platelet count ([6]; day 15): 387000 µL⁻¹ | platelet count ([6]; day 22): 319000 µL⁻¹ | platelet count ([6]; day 29): 337000 µL⁻¹ | platelet count ([6]; day 36): 370000 µL⁻¹ | platelet count ([6]; day 43): 365000 µL⁻¹ | platelet count ([6]; day 50): 372000 µL⁻¹ | platelet count ([6]; day 57): 371000 µL⁻¹ | platelet count ([6]; day 64): 358000 µL⁻¹ | platelet count ([6]; day 71): 365000 µL⁻¹ | platelet count ([6]; day 78): 348000 µL⁻¹ | platelet count ([6]; day 85): 344000 µL⁻¹ | platelet count ([6]; day −5): 425000 µL⁻¹ | platelet count ([6]; day −14): 377000 µL⁻¹

ISIS 416864: gapmer of Table 8 (antisense eG*eG*e[5mC]*eA*eG*d[5mC]*dG*dG*dA*d[5mC]*dG*dG*d[5mC]*dA*dT*eT*eG*eG*eT*eG)
Kidney weight [4]: 14 g | Liver weight [4]: 53 g | Spleen weight [4]: 5 g | Body weight ([4]; day 1): 2890 g | Body weight ([4]; day 8): 2784 g | Body weight ([4]; day 15): 2817 g | Body weight ([4]; day 22): 2857 g | Body weight ([4]; day 29): 2863 g | Body weight ([4]; day 36): 3327 g | Body weight ([4]; day 43): 3355 g | Body weight ([4]; day 50): 3408 g | Body weight ([4]; day 57): 3387 g | Body weight ([4]; day 64): 3384 g | Body weight ([4]; day 71): 2942 g | Body weight ([4]; day 78): 2822 g | Inhibition of Factor XI protein relative to the PBS control ([5]; day 8): 7% | Inhibition of Factor XI protein relative to the PBS control ([5]; day 15): 9% | Inhibition of Factor XI protein relative to the PBS control ([5]; day 22): 7% | Inhibition of Factor XI protein relative to the PBS control ([5]; day 29): 10% | Inhibition of Factor XI protein relative to the PBS control ([5]; day 36): 9% | Inhibition of Factor XI protein relative to the PBS control ([5]; day 43): 9% | Inhibition of Factor XI protein relative to the PBS control ([5]; day 50): 10% | Inhibition of Factor XI protein relative to the PBS control ([5]; day 57): 7% | Inhibition of Factor XI protein relative to the PBS control ([5]; day 64): 5% | Inhibition of Factor XI protein relative to the PBS control ([5]; day 71): 10% | Inhibition of Factor XI protein relative to the PBS control ([5]; day 78): 9% | Inhibition of Factor XI protein relative to the PBS control ([5]; day 85): 8% | Inhibition of Factor XI protein relative to the PBS control ([5]; day −5 (before treatment)): 5% | Inhibition of Factor XI protein relative to the PBS control ([5]; day −14 (before treatment)): 0% | platelet count ([6]; day 8): 438000 µL⁻¹ | platelet count ([6]; day 15): 439000 µL⁻¹ | platelet count ([6]; day 22): 364000 µL⁻¹ | platelet count ([6]; day 29): 397000 µL⁻¹ | platelet count ([6]; day 36): 428000 µL⁻¹ | platelet count ([6]; day 43): 351000 µL⁻¹ | platelet count ([6]; day 50): 419000 µL⁻¹ | platelet count ([6]; day 57): 409000 µL⁻¹ | platelet count ([6]; day 64): 383000 µL⁻¹ | platelet count ([6]; day 71): 394000 µL⁻¹ | platelet count ([6]; day 78): 366000 µL⁻¹ | platelet count ([6]; day 85): 387000 µL⁻¹ | platelet count ([6]; day −5): 456000 µL⁻¹ | platelet count ([6]; day −14): 434000 µL⁻¹
